From US10597388B2, “Pyridazinone herbicides” (FMC CORPORATION, priority 2014, dated 2020)

Legend:
Type in all cases: in vivo
[1] = test system: oat, wild (wild oat, Avena fatua); assay: Test C greenhouse herbicide test, postemergence
Summary of the method: (§1)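 Postemergence foliar treatment, 1- to 4-leaf stage (2–18 cm), peat/vermiculite medium; greenhouse 13–15 d; visual rating vs controls, 0 = no effect, 100 = complete control; dash = no result.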

kochia (Kochia scoparia) = assay: Test C greenhouse herbicide test, postemergence
Summary of the method: as §1

soybean (Glycine max) = assay: Test C greenhouse herbicide test, pre- and postemergence
Summary of the method: (§2)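 Preemergence: seeds sown in a loam soil–sand blend and sprayed with test chemicals in a non-phytotoxic solvent mixture containing surfactant. Postemergence: plants grown in peat-based medium and treated at 2 to 18 cm (1- to 4-leaf stage). After 13 to 15 d in a greenhouse, injury was visually rated 0–100 against controls.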

[2] = test system: foxtail, giant (giant foxtail, Setaria faberii); assay: as above
Summary of the method: as §2

[3] = test system: morningglory (Ipomoea coccinea); assay: as above
Summary of the method: as §2

[4] = test system: barnyardgrass (Echinochloa crus-galli); assay: as above
Summary of the method: as §2

[5] = test system: blackgrass (Alopecurus myosuroides); assay: as above
Summary of the method: as §2

[6] = test system: wheat (winter wheat, Triticum aestivum); assay: as above
Summary of the method: as §2

[7] = test system: waterhemp (common waterhemp, Amaranthus rudis); assay: as above
Summary of the method: as §2

[8] = test system: galium (catchweed bedstraw, Galium aparine); assay: as above
Summary of the method: as §2

[9] = test system: pigweed (Amaranthus retroflexus); assay: as above
Summary of the method: as §2

[10] = test system: ragweed (common ragweed, Ambrosia elatior); assay: as above
Summary of the method: as §2

[11] = test system: velvetleaf (Abutilon theophrasti); assay: as above
Summary of the method: as §2

[12] = test system: crabgrass, large (large crabgrass, Digitaria sanguinalis); assay: as above
Summary of the method: as §2

[13] = test system: johnsongrass (Sorghum halepense); assay: as above
Summary of the method: as §2

[14] = test system: oilseed rape (Brassica napus); assay: as above
Summary of the method: as §2

corn (Zea mays) = assay: as above
Summary of the method: as §2

[15] = Postemergence, 31 g ai/ha, 0 to 100 scale (0 no effect, 100 complete control)
[16] = Postemergence, 125 g ai/ha, scale 0 to 100, 0 is no effect, 100 is complete control
[17] = Postemergence, 250 g ai/ha, scale 0 to 100, 0 no effect, 100 complete control, 13 to 15 d
[18] = postemergence, 62 g ai/ha, scale 0 to 100, 0 no effect, 100 complete control
[19] = Preemergence, 31 g ai/ha, scale 0 to 100, 0 is no effect, 100 is complete control
[20] = Preemergence, 62 g ai/ha, scale 0 to 100, 0 is no effect, 100 is complete control
[21] = Preemergence, 125 g ai/ha, scale 0 to 100, 0 is no effect, 100 is complete control
[22] = Preemergence, 250 g ai/ha, scale 0 to 100 (0 no effect, 100 complete control)

SMILES: Cc1cc(C)c2sc(C)c(-c3c(OC(=O)OC(C)C)c(C)nn(C)c3=O)c2c1 [Compound 67]
- Oat, Wild plant response rating [1, 15]: 80
- Plant response rating, Oat, Wild [1, 16]: 90
- Plant response rating, Oat, Wild [1, 17]: 100
- Oat, Wild plant response rating [1, 18]: 85
- Kochia plant response rating (kochia (Kochia scoparia); [15]): 0
- Plant response rating, Kochia (kochia (Kochia scoparia); [16]): 35
- Plant response rating, Kochia (kochia (Kochia scoparia); [17]): 80
- Kochia plant response rating (kochia (Kochia scoparia); [18]): 30
- Soybean plant response rating (soybean (Glycine max); [15]): 5
- Plant response rating, Soybean (soybean (Glycine max); [16]): 5
- Plant response rating, Soybean (soybean (Glycine max); [17]): 10
- Plant response rating, Soybean (soybean (Glycine max); [19]): 0
- Plant response rating, Soybean (soybean (Glycine max); [20]): 0
- Plant response rating, Soybean (soybean (Glycine max); [21]): 0
- Soybean plant response rating (soybean (Glycine max); [22]): 0
- Soybean plant response rating (soybean (Glycine max); [18]): 5
- Foxtail, Giant plant response rating [2, 15]: 70
- Plant response rating, Foxtail, Giant [2, 16]: 80
- Plant response rating, Foxtail, Giant [2, 17]: 85
- Plant response rating, Foxtail, Giant [2, 19]: 75
- Plant response rating, Foxtail, Giant [2, 20]: 80
- Plant response rating, Foxtail, Giant [2, 21]: 98
- Foxtail, Giant plant response rating [2, 22]: 100
- Foxtail, Giant plant response rating [2, 18]: 75
- Morningglory plant response rating [3, 15]: 95
- Plant response rating, Morningglory [3, 16]: 100
- Plant response rating, Morningglory [3, 17]: 100
- Plant response rating, Morningglory [3, 19]: 70
- Plant response rating, Morningglory [3, 20]: 80
- Plant response rating, Morningglory [3, 21]: 80
- Morningglory plant response rating [3, 22]: 90
- Morningglory plant response rating [3, 18]: 95
- Barnyardgrass plant response rating [4, 15]: 25
- Plant response rating, Barnyardgrass [4, 16]: 35
- Plant response rating, Barnyardgrass [4, 17]: 45
- Plant response rating, Barnyardgrass [4, 19]: 5
- Plant response rating, Barnyardgrass [4, 20]: 20
- Plant response rating, Barnyardgrass [4, 21]: 40
- Barnyardgrass plant response rating [4, 22]: 80
- Barnyardgrass plant response rating [4, 18]: 35
- Blackgrass plant response rating [5, 15]: 40
- Plant response rating, Blackgrass [5, 16]: 65
- Plant response rating, Blackgrass [5, 17]: 80
- Plant response rating, Blackgrass [5, 19]: 60
- Plant response rating, Blackgrass [5, 20]: 30
- Plant response rating, Blackgrass [5, 21]: 40
- Blackgrass plant response rating [5, 22]: 60
- Blackgrass plant response rating [5, 18]: 60
- Wheat plant response rating [6, 15]: 0
- Plant response rating, Wheat [6, 16]: 0
- Plant response rating, Wheat [6, 17]: 0
- Plant response rating, Wheat [6, 19]: 0
- Plant response rating, Wheat [6, 20]: 0
- Plant response rating, Wheat [6, 21]: 0
- Wheat plant response rating [6, 22]: 0
- Wheat plant response rating [6, 18]: 0
- Waterhemp plant response rating [7, 15]: 60
- Plant response rating, Waterhemp [7, 16]: 75
- Plant response rating, Waterhemp [7, 17]: 70
- Plant response rating, Waterhemp [7, 19]: 70
- Plant response rating, Waterhemp [7, 20]: 80
- Plant response rating, Waterhemp [7, 21]: 65
- Waterhemp plant response rating [7, 22]: 85
- Waterhemp plant response rating [7, 18]: 70
- Galium plant response rating [8, 15]: 90
- Plant response rating, Galium [8, 16]: 95
- Plant response rating, Galium [8, 17]: 90
- Plant response rating, Galium [8, 19]: 70
- Plant response rating, Galium [8, 20]: 90
- Plant response rating, Galium [8, 21]: 90
- Galium plant response rating [8, 22]: 90
- Galium plant response rating [8, 18]: 95
- Pigweed plant response rating [9, 15]: 100
- Plant response rating, Pigweed [9, 16]: 80
- Plant response rating, Pigweed [9, 17]: 85
- Plant response rating, Pigweed [9, 19]: 75
- Plant response rating, Pigweed [9, 20]: 90
- Plant response rating, Pigweed [9, 21]: 95
- Pigweed plant response rating [9, 22]: 100
- Pigweed plant response rating [9, 18]: 85
- Ragweed plant response rating [10, 15]: 70
- Plant response rating, Ragweed [10, 16]: 98
- Plant response rating, Ragweed [10, 17]: 95
- Plant response rating, Ragweed [10, 19]: 60
- Plant response rating, Ragweed [10, 20]: 85
- Plant response rating, Ragweed [10, 21]: 100
- Ragweed plant response rating [10, 22]: 98
- Ragweed plant response rating [10, 18]: 75
- Velvetleaf plant response rating [11, 15]: 70
- Plant response rating, Velvetleaf [11, 16]: 85
- Plant response rating, Velvetleaf [11, 17]: 98
- Plant response rating, Velvetleaf [11, 19]: 10
- Plant response rating, Velvetleaf [11, 20]: 35
- Plant response rating, Velvetleaf [11, 21]: 60
- Velvetleaf plant response rating [11, 22]: 75
- Velvetleaf plant response rating [11, 18]: 85
- Crabgrass, Large plant response rating [12, 15]: 35
- Plant response rating, Crabgrass, Large [12, 16]: 35
- Plant response rating, Crabgrass, Large [12, 17]: 40
- Plant response rating, Crabgrass, Large [12, 19]: 10
- Plant response rating, Crabgrass, Large [12, 20]: 70
- Plant response rating, Crabgrass, Large [12, 21]: 10
- Crabgrass, Large plant response rating [12, 22]: 65
- Crabgrass, Large plant response rating [12, 18]: 35
- Johnsongrass plant response rating [13, 15]: 5
- Plant response rating, Johnsongrass [13, 16]: 5
- Plant response rating, Johnsongrass [13, 17]: 10
- Plant response rating, Johnsongrass [13, 19]: 10
- Plant response rating, Johnsongrass [13, 20]: 20
- Plant response rating, Johnsongrass [13, 21]: 10
- Johnsongrass plant response rating [13, 22]: 30
- Johnsongrass plant response rating [13, 18]: 5
- Oilseed Rape plant response rating [14, 15]: 40
- Plant response rating, Oilseed Rape [14, 16]: 75
- Plant response rating, Oilseed Rape [14, 17]: 75
- Plant response rating, Oilseed Rape [14, 19]: 0
- Plant response rating, Oilseed Rape [14, 20]: 0
- Plant response rating, Oilseed Rape [14, 21]: 0
- Oilseed Rape plant response rating [14, 22]: 20
- Oilseed Rape plant response rating [14, 18]: 50
- Corn plant response rating (corn (Zea mays); [15]): 5
- Plant response rating, Corn (corn (Zea mays); [16]): 10
- Plant response rating, Corn (corn (Zea mays); [17]): 20
- Plant response rating, Corn (corn (Zea mays); [19]): 0
- Plant response rating, Corn (corn (Zea mays); [20]): 0
- Plant response rating, Corn (corn (Zea mays); [21]): 0
- Corn plant response rating (corn (Zea mays); [22]): 0
- Corn plant response rating (corn (Zea mays); [18]): 5
